In PMC6009881, “New sulfurated derivatives of cinnamic acids and rosmaricine as inhibitors of STAT3 and NF-κB transcription factors” (Journal of Enzyme Inhibition and Medicinal Chemistry, 2017):
Where a name gives a salt, the structure may show the parent alone.

Experiments:
[1] = molecular target: STAT3-SH2 domain (Homo sapiens, UniProt P40763); assay: STAT AlphaScreen-based assay (STAT3); format: binding; details: for IC50: read-out: STAT3 IC50 ±SD; for inhibition at 30 µM: read-out: STAT3 % inhibition ± SD at 30 μM
Sequence of STAT3-SH2 domain (P40763 whole entry, the tested form may be a part): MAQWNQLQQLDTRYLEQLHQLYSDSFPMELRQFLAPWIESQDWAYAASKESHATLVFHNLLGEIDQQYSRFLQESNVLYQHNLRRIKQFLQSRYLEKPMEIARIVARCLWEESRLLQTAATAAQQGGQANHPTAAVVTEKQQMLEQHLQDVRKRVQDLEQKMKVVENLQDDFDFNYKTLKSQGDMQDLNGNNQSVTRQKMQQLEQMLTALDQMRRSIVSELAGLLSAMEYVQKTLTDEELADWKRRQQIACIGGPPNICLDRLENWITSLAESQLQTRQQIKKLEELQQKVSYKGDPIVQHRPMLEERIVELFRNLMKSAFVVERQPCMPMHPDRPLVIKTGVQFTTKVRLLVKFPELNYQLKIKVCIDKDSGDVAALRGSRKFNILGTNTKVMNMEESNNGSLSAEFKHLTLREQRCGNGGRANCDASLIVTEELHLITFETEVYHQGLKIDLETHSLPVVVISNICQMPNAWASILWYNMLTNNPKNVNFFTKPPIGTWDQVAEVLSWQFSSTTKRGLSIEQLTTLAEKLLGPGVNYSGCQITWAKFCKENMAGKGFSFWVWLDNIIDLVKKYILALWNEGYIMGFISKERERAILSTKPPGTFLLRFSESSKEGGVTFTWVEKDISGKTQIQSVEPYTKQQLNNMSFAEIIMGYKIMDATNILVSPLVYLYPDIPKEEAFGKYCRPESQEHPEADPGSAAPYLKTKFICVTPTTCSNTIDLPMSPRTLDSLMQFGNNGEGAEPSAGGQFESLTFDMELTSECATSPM

[2] = molecular target: T1, SH2-domain of STAT1 (Homo sapiens, UniProt P42224); assay: STAT AlphaScreen-based assay (STAT1 selectivity); format: binding; details: for inhibition at 30 µM: read-out: STAT1 % inhibition ± SD at 30 μM, 30 μM; for IC50: read-out: STAT1 IC50 ±SD
T1 sequence (P42224 1-750): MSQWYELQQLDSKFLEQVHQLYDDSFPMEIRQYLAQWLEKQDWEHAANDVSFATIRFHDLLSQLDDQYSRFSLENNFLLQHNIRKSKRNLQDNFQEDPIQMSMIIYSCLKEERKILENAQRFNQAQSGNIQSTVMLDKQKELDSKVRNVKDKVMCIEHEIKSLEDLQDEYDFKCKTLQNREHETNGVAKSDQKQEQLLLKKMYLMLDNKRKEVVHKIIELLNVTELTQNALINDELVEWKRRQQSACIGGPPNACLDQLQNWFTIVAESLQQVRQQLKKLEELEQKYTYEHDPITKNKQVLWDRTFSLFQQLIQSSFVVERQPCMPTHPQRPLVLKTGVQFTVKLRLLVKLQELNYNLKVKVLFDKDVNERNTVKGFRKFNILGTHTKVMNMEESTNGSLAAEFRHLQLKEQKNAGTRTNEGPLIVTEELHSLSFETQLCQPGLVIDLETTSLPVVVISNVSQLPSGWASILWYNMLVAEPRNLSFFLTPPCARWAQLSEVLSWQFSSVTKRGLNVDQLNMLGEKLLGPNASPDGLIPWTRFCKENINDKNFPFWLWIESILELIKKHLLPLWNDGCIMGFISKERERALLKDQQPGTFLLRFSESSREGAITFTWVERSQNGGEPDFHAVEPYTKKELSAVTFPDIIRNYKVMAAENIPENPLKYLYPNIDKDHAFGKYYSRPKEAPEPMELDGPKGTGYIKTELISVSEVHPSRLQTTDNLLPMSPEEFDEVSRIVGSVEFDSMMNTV
Experimental: STAT3 inhibitory activity of the described compounds was tested by the AlphaScreen-based assay to evaluate the potential inhibition of the interaction between STAT3-SH2 domain and pTyr-containing peptides according to the previously reported procedure. For the most interesting compounds, selectivity tests versus STAT1 were performed.
The new sulfurated-drug hybrids, together with their parent compounds have been submitted to the AlphaScreen-based assay, to investigate their ability to bind STAT3 directly, through the evaluation of the inhibition of the binding of SH2-containing proteins to their correspondent phosphopeptides, the physiological ligands. […] Since AlphaScreen is a cell-free assay, not always there is a correspondence between the potency of STAT3 inhibition and cytotoxicity, probably due to not optimal physicochemical properties of the tested compounds, such as solubility and chemical stability in the culture medium and cell permeation.

[3] = test system: HCT-116 cells; assay: MTT assay, cytotoxicity on HCT-116; format: cell-based, human; details: human, HCT-116 cells, MTT assay, 48 h; NA = not active up to 100 μM; read-out: Cytotoxicity (HCT-116) IC50 ±SD
Experimental: Following the same protocol used for previous cytotoxicity assays by N. Ferri[55], cells were seeded in 48-well plate (40.000 cells/well) and, after 24 h, they were incubated with different concentrations of our compounds for 48 h.
The determination of the conversion of MTT (3-(4,5-dimethyl-2-thiazolyl)-2,5-diphenyl-2H-tetrazolium bromide) to formazan was determined by using a commercially available kit (Millipore, Billerica, MA), according to the manufacturer’s instructions.

[4] = test system: NF-κB promoter activity in HCT-116 cells; assay: Luciferase reported NF-κB promoter activity assay; format: cell-based; details: Homo sapiens, 2 h pre-treatment, TNF-α 10 ng/ml, NA = not active up to 100 μM, read-out: NF-κB promoter assay (HCT-116) IC50 ±SD
Experimental: To measure the NF-κB promoter activity, HCT-116 cells were seeded in 100 mm dish and transiently transfected with 6 μg of DNA (NF-κB plasmid, containing luciferase reporter gene[57] with turbofect reagent (Carlo Erba Reagents). After 24 h, cells were seeded in 48-well plates (40.000 cells per well). On the next day, cells were incubated with our compounds for 2 h (pre-treatment) and then TNF-α was added in every well at (10 ng/ml). After 5–6 h, luciferase activity was measured by using Neolite reagent (PerkinElmer Life Sciences, Waltham, MA) according to the manufacturer’s instructions.

[5] = test system: STAT3 reporter activity in HeLa cells; assay: STAT3 luciferase reporter gene assay; format: cell-based; details: Homo sapiens, 2 h pretreatment, oncostatin M 10 ng/ml 4 h, read-out: STAT3 reporter assay (HeLa) IC50 ±SD
Experimental: STAT3 reporter HeLa stable cell lines (Signosis Inc, Santa Clara, CA) were incubated in a 96-well microplate for 24 h. Cells were pretreated with test compounds for 2 h, and 10 ng/ml (w/v) of oncostatin M were applied and incubated for 4 h. Cells were washed with medium not supplemented with phenol red, and Steady-Glo® reagent (Promega, Madison, WI) was applied. After 15 min incubation, the signals were detected by ARVO Light 1420 (PerkinElmer Life Sciences, Waltham, MA). The relative signal intensity was calculated in each well as the ratio for the mean signal of vehicle.

Row | IC50 ([1]; AlphaScreen assay) [µM] | inhibition at 30 µM ([1]; AlphaScreen assay) [%] | inhibition at 30 µM [2] [%] | IC50 [2] [µM] | SMILES | also measured
1 | > 30 | 11.6 | – | – | CS(=O)(=O)SCCO [Compound 1, S-2-hydroxyethyl methanesulfonothioate] | –
2 | 4.4 ± 0.3 | 88.4 ± 0.5 | 73.7 ± 1.4 | 8.6 ± 0.7 | CS(=O)(=O)SCCCCO [Compound 2, S-4-hydroxybutyl methanesulfonothioate] | –
3 | > 30 | -10.2 | – | > 3 | CS(=O)(=O)SCCN [Compound 3, S-2-aminoethyl methanesulfonothioate hydrobromide] | inhibition at 3 µM [2]: 14.5%; inhibition at 3 µM ([1]; AlphaScreen assay, 3 μM): 46.8%
4 | 22.2 ± 3 | 55.7 ± 2.5 | 11.7 ± 6 | > 30 | C=CCSSCCO [Compound 4, 2-(Allyldisulfanyl)ethanol] | –
5 | > 30 | 43.7 | – | – | Oc1ccc(-c2cc(=S)ss2)cc1 [Compound 5, 5-(4-hydroxyphenyl)-1,2-dithiol-3-thione] | IC50 at 48 h [3]: 71.2 ± 15 µM; IC50 [4]: 36.7 ± 11.4 µM
6 | 4.7 ± 1.1 | 72.5 ± 4.8 | – | > 3 | CS(=O)(=O)SCCCCC(=O)O [Compound 6, 5-(methanesulfonylthio)pentanoic acid] | inhibition at 3 µM [2]: 8.6%
7 | 1.9 ± 0.2 | 99.6 ± 0.1 | 70.8 ± 1.2 | 20.1 ± 0.4 | COC(=O)CCCCSS(C)(=O)=O [Compound 7, Methyl 5-((methylsulfonyl)thio)pentanoate] | –
8 | > 30 | 3.8 ± 2.8 | – | – | CS(=O)(=O)CCCCC(=O)O [Compound 8, 5-(Methylsulfonyl)pentanoic acid] | STAT3 IC50 ±SD ([1]; AlphaScreen assay): loss of activity on STAT3; melting point: 111.3 to 112.8 °C
9 | > 30 | 43.9 ± 3.6 | – | – | C=CCSSCCC(=O)O [Compound 9, 3-(allyldisulfanyl)propionic acid] | –
10 | > 30 | 42 ± 4.7 | 11.2 | > 30 | C=CCSSCCC(=O)OC [Compound 10, Methyl 3-(allyldisulfanyl)propanoate] | –
11 | > 100 | -1.2 ± 6 | – | – | O=C(O)c1ccc(-c2cssc2=S)cc1 [Compound 11, 4-(3-thioxo-3H-1,2-dithiol-4-yl)benzoic acid] | IC50 [5]: > 100 µM
12 | > 30 | 0.2 ± 8.2 | – | – | COc1cc(/C=C/C(=O)O)ccc1O [Compound 12, ferulic acid, reference compound] | –
13 | > 30 | 2.1 ± 2.3 | – | – | COC(=O)/C=C/c1ccc(O)c(OC)c1 [Compound 13] | –
14 | 0.9 | 110.1 ± 0.2 | 110.5 ± 0.6 | 7 ± 0.7 | COc1cc(/C=C/C(=O)OCCSS(C)(=O)=O)ccc1O [Compound 14, (E)-2-(methylsulfonylthio)ethyl 3-(4-hydroxy-3-methoxyphenyl)acrylate] | IC50 at 48 h [3]: 50.4 ± 5.9 µM; IC50 [5]: 65.4 ± 1 µM; IC50 [4]: 116 ± 2.9 µM
15 | 0.3 | 100 ± 0.1 | 86 ± 6.7 | 1.8 ± 0.4 | COc1cc(/C=C/C(=O)OCCCCSS(C)(=O)=O)ccc1O [Compound 15, (E)-4-(methylsulfonylthio)butyl 3-(4-hydroxy-3-methoxyphenyl)acrylate] | IC50 at 48 h [3]: 64.4 ± 9.1 µM; IC50 [5]: 57.5 ± 1.1 µM; IC50 [4]: 94 ± 4.6 µM
16 | 1.8 ± 0.5 | 107.8 ± 0.1 | 4.1 ± 5.4 | > 30 | COc1cc(/C=C/C(=O)NCCSS(C)(=O)=O)ccc1O [Compound 16, (E)-S-2-(3-(4-hydroxy-3-methoxyphenyl)acrylamido)ethyl methanesulfonothioate] | –
17 | 7.8 ± 0.6 | 67.9 ± 0.8 | 12 ± 4.7 | > 30 | C=CCSSCCOC(=O)/C=C/c1ccc(O)c(OC)c1 [Compound 17, (E)-2-(allyldisulfanyl)ethyl 3-(4-hydroxy-3-methoxyphenyl)acrylate] | –
18 | 28.5 ± 0.7 | 51.3 ± 0.7 | 44.2 ± 1.9 | > 30 | COc1cc(/C=C/C(=O)Oc2ccc(-c3cc(=S)ss3)cc2)ccc1O [Compound 18, (E)-4-(3-thioxo-3H-1,2-dithiol-5-yl)phenyl 3-(4-hydroxy-3-methoxyphenyl)acrylate] | –
19 | > 30 | 12.8 ± 1.1 | – | – | COC(=O)/C=C/c1ccc(O)c(O)c1 [Compound 20, (E)-methyl 3-(3,4-dihydroxyphenyl)acrylate] | IC50 at 48 h [3]: 90.8 µM
20 | 0.9 ± 0.1 | 99.8 ± 0.1 | -17.8 ± 0.3 | > 30 | CS(=O)(=O)SCCNC(=O)/C=C/c1ccc(O)c(O)c1 [Compound 22, (E)-S-2-(3-(3,4-dihydroxyphenyl)acrylamido)ethyl methanesulfonothioate] | –
21 | 0.5 | 100 | 100.3 ± 0.2 | 3.6 ± 0.4 | CS(=O)(=O)SCCOC(=O)C=Cc1ccccc1 [Compound 25, 2-(Methylsulfonylthio)ethyl cinnamate] | IC50 at 48 h [3]: 95.2 ± 8.9 µM; IC50 [5]: 72.5 ± 4.4 µM; melting point: 76.8 to 78.5 °C
22 | 0.3 | 100 ± 0.1 | 104 ± 1.7 | 1.9 ± 0.2 | CS(=O)(=O)SCCOC(=O)/C=C/c1ccc(Cl)c(Cl)c1 [Compound 26, (E)-2-(methylsulfonylthio)ethyl 3-(3,4-dichlorophenyl)acrylate] | melting point: 69.6 to 71.2 °C
23 | 0.6 ± 0.1 | 100 ± 0.1 | 98.4 ± 0.9 | 6.3 ± 0.5 | COCCOCOc1ccc(/C=C/C(=O)OCCSS(C)(=O)=O)cc1OCOCCOC [Compound 28, (E)-2-(methylsulfonylthio)ethyl 3-(3,4-bis((2-methoxyethoxy)methoxy)phenyl)acrylate] | –
24 | 1.1 | 100.1 ± 0.1 | 63.3 ± 0.5 | 19.5 ± 0.3 | COCCOCOc1ccc(/C=C/C(=O)NCCSS(C)(=O)=O)cc1OCOCCOC [Compound 29, (E)-S-2-(3-(3,4-bis((2-methoxyethoxy)methoxy)phenyl)acrylamido)ethyl methanesulfonothioate] | melting point: 62.3 to 64.6 °C

Row | SMILES | IC50 ([1]; AlphaScreen assay) [µM] | inhibition at 30 µM ([1]; AlphaScreen assay) [%] | inhibition at 30 µM [2] [%] | IC50 [2] [µM] | also measured
25 | COc1ccc(/C=C/C(=O)OCCSS(C)(=O)=O)cc1OC [Compound 27, (E)-2-((methylsulfonyl)thio)ethyl 3-(3,4-dimethoxyphenyl)acrylate] | 0.3 | 99.7 ± 0.1 | 68.9 ± 10.2 | 20.9 ± 4.9 | fold more selective for STAT3 versus STAT1 ([1]; in comparison to 15 and 26): 10 fold; melting point: 99.8 to 102.7 °C
